Test results from patent publication US5817756A, “Pseudo- and non-peptide bradykinin receptor antagonists” (Scios Inc., priority 1995, dated 1998).
pKi: −log10 of the molar value.

How the values were obtained:
human B2 receptor = biological target: T1, human B2 receptor (Homo sapiens, UniProt P30411); assay: Whole cell binding assay, 3H-bradykinin; settings: Table 2, whole cells, read-out: Radioligand Binding, Ki Whole Cell 3HBK
T1 construct: The HindIII/XbaI fragment of one full-length clone, 126A, was inserted into pcDNAI neo vector; expressed in transfected cells
T1 sequence (P30411 1-391): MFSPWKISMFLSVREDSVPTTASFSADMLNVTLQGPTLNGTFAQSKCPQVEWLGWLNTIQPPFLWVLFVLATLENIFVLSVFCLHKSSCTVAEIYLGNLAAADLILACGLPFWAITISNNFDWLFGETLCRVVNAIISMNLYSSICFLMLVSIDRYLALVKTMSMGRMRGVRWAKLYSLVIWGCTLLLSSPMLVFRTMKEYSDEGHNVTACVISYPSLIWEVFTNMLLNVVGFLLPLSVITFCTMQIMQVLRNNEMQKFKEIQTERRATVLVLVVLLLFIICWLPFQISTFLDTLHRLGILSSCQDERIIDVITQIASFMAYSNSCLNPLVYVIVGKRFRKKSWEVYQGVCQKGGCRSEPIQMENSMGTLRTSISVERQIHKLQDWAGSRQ
Protocol: Binding to confluent monolayers of transfected cells expressing the human B2 receptor (7,000 fmol/receptor/mg) grown in 24-well plates was measured by incubating cells in 1 ml cell binding buffer (PBS/Ca/Mg, 1% BSA, 0.14 mg/ml bacitracin) containing 10^-10 M ^3 H-bradykinin and various concentrations of unlabeled analogs for 4 to 10 hours at 4° C. Cells were washed three times with cell binding buffer and lysed in 0.1N NaOH. An aliquot of the lysate was counted to measure radioactivity bound.

[1] = biological target: T2, human bradykinin B2 receptor (Homo sapiens, UniProt P30411); assay: Radioligand binding, H2O.2 cell membranes, 3H-NPC17731; settings: Table 2; 3H-NPC17731; read-out: Radioligand Binding, Ki Human 3H17731
T2 construct: The HindIII/XbaI fragment of one full-length clone, 126A, was inserted into pcDNAI neo vector; expressed in transfected cells
T2 sequence (P30411 1-391): T1 sequence (P30411 1-391)
Protocol: (§1) A human bradykinin B2 receptor was expressed in CHO/K cells. Briefly, approximately 2×10^6 plaques from a human uterus λgt10 cDNA library (Clontech Laboratories; Palo Alto, Calif.) were screened using a PCR fragment containing the coding region of the rat B2 receptor. This probe was generated by random-primed synthesis in the presence of α[^32 P]dATP. Duplicate filters were hybridized overnight at 42° C. in 1M NaCl, 50 mM Tris pH 7.5, 5× Denhardt's, 200 μg/ml salmon sperm DNA, 1% SDS, and 20% formamide. The filters were washed at 65° C. in 1× SSC and 1% SDS. Coincident positively hybridizing plaques were purified and rescreened with the same probe and stringency conditions. EcoRI fragments of positive clones were inserted into Bluescript/KS II+vector (Stratagene; La Jolla, Calif.) for sequence determination.
(§2) The nucleotide sequence of the cloned human B2 receptors was determined using double-stranded DNA and the dideoxy chain termination method. Commercially available T3 and T7 oligonucleotides (USB; Cleveland, Ohio) and synthetic 21-mer oligonucleotides (DNA/RNA Synthesizer; applied Biosystems Inc.; Palo Alto, Calif.) from both the known rat sequence and the determined human sequence were used to identify the nucleotide sequence from the 5' untranslated end to the BglII site in the 3' untranslated end of the clone.
(§3) CHO/K cells were plated in 2 ml of growth medium (Ham's F12 with 10% FBS) per 6 well plate and incubated at 37° C., 5% CO2 until they were 60% confluent. For each well, 4, 12, and 16 μg of DNA was diluted in 100 μl Opti-MEM I reduced serum medium (Gibco/BRL; Gaithersburg, Md.). 12 μl of TransfectASE reagent (Gibco/BRL) was diluted in a separate aliquot of 100 μl Opti-MEM I. The DNA and TransfecASE solutions were combined, mixed gently, and incubated at 25° C. for 15 minutes. This solution was then diluted to 1 ml with Opti-MEM I. Each well was washed twice with Opti-MEM I and 1 ml of the DNA/TransfectAse complex was added to each well. After a 5 hour incubation at 37° C. and 5% CO2, 1 ml of Ham's F12 with 20% FBS was added to each well and cells were incubated overnight. Media was replaced with growth medium and incubated for additional 24 hours.
(§4) This assay measures the ability of a bradykinin antagonist compound to compete for binding to the human B2 receptor with tritiated bradykinin or tritiated NPC17731, a bradykinin analog which is known to bind the B2 receptor and act as a bradykinin antagonist.
(§5) H2O.2 cells were grown to confluency in Ham's F12 media containing 10% FBS and 500 μg/ml Geneticin. Growth media was aspirated and the monolayer washed once with Dulbecco's PBS without Ca^++ and Mg^++. Cells were scraped in Dulbecco's PBS and centrifuged at 2,000×g for 10 minutes. Pellets were resuspended in 25 mM TES, 1 mM 1,10-phenanthroline pH 6.8 buffer and homogenized using a Ploytron at setting 5 for 10 seconds. An aliquot was taken for a protein determination using a BioRad protein assay kit. Membranes were centrifuged at 48,000×g for 10 minutes at 4° C. Pellets were resuspended in the TES buffer with 0.1% BSA and 0.014% bacitracin. 0.5 ml aliquots were frozen in liquid N2 and stored at -80° C. for up to 2 weeks.
(§6) Membranes from H2O.2 cells previously prepared were thawed at 37° C. and diluted in 25 mM TES, […] 1,10-phenanthroline pH 6.8 containing BSA and bactiracin. […] Non-specific binding was determined with 1 μM bradykinin. The tubes were incubated 90 minutes at 25° C. and the assay was terminated by rapid vacuum filtration onto Whatman GF/B filters presoaked with 0.2% PEI for 3 hours followed by 2×3 ml aliquots of ice-cold 50 mM Tris, pH 7.4. Radioactivity was counted with a Beckman scintillation counter.

[2] = biological target: T2, human bradykinin B2 receptor; assay: Radioligand binding, H2O.2 cell membranes, 3H-bradykinin; settings: Table 2, read-out: Radioligand Binding, Ki Human 3HBK
Protocol: as §1, §2, §3, §4, §5, §6

pKi (human B2 receptor): 4.98
pKi [1]: 7.03
pKi [2]: 5.74
Structure (SMILES): N=C(N)NCCC[C@@H](N)C(=O)N[C@@H](CCCNC(=N)N)C(=O)N1CCC2(CC1)C(=O)N(CC(=O)N1CCc3c(n(CC(=O)N[C@@H](CCCNC(=N)N)C(=O)O)c4ccccc34)C1)CN2c1ccccc1 [Compound 2]
